The values that follow come from PubChem BioAssay (NCI).

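Five concentrations, 48 hours, 96-well plates. GI50 = concentration required for 50% inhibition of growth. TGI marks complete inhibition of growth.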

Test systems include SNB-75 CNS; SF-539 CNS; HCC-2998 colon; CAKI-1 renal; NCI-H226 lung; RXF 393 renal; U251 CNS; A549 NSCLC; HOP-92 NSCLC; MALME-3M melanoma.
Assay in all cases: inhibition of tumour cell growth, NCI panel, 48 h

For the compound `CSc1ccc(C(=O)C(=O)c2ccc(SC)s2)s1`, the TGI in the assay on SNB-75 CNS, in the assay on SF-539 CNS, with HCC-2998 colon, with CAKI-1 renal, with NCI-H226 lung and in the assay with RXF 393 renal was > 10 µM throughout. For the same compound, the TGI with U251 CNS, in the assay on A549 NSCLC and in the assay with HOP-92 NSCLC was > 10 µM throughout.

As to `CCOC(=O)[C@H]1Nc2ccccc2C2c3ccccc3CC21` (some centres undefined), the TGI is > 100 µM in the assay on SNB-75 CNS; > 100 µM in the assay on SF-539 CNS; > 100 µM in the assay with HCC-2998 colon; > 100 µM in the assay with CAKI-1 renal; > 100 µM in the assay on NCI-H226 lung; 31.1 µM in the assay on RXF 393 renal. Also, the TGI in the assay with U251 CNS, in the assay on A549 NSCLC and with MALME-3M melanoma was > 100 µM throughout.

Consider `COC1(OC)c2no[n+]([O-])c2C(OC)(OC)c2c1no[n+]2[O-]`, for which the TGI in the assay on SNB-75 CNS was found to be 83.3 µM; with SF-539 CNS, 38 µM; in the assay with HCC-2998 colon it was 41.6 µM; in the assay with CAKI-1 renal, 92.9 µM; in the assay with NCI-H226 lung, 64 µM; with RXF 393 renal, 58.7 µM. Further, the TGI in the assay on A549 NSCLC worked out at 82 µM; in the assay on MALME-3M melanoma it was 29.4 µM.

Regarding `CC1=C(C(=O)Nc2ccc(Cl)c(Cl)c2)C(c2ccccc2O)NC(=O)N1` (centres undefined), the GI50 was 25.9 µM in the assay with SNB-75 CNS; 43.7 µM in the assay with SF-539 CNS; > 50 µM with CAKI-1 renal; 21.3 µM in the assay on NCI-H226 lung; > 50 µM in the assay with RXF 393 renal; > 50 µM in the assay with U251 CNS. For the same compound, the GI50 in the assay with A549 NSCLC and with HOP-92 NSCLC was > 50 µM in each case. Besides, the TGI in the assay on SNB-75 CNS, with SF-539 CNS, in the assay with CAKI-1 renal, with NCI-H226 lung, with RXF 393 renal and in the assay with U251 CNS was > 50 µM each time. Also, the TGI with A549 NSCLC and with HOP-92 NSCLC was > 50 µM in each case.

Take `COc1cccc(C2NC(=S)NC(C)=C2C(=O)Nc2ccc(Cl)c(Cl)c2)c1` (centres undefined): the GI50 in the assay with SNB-75 CNS was 34.8 µM; in the assay on CAKI-1 renal, 9.69 µM; in the assay with NCI-H226 lung it was 12.1 µM; in the assay on RXF 393 renal it was 9.14 µM; in the assay on U251 CNS, > 50 µM; in the assay with A549 NSCLC, 17.9 µM. The GI50 in the assay with HOP-92 NSCLC is 12.5 µM. For the same compound, the TGI in the assay with SNB-75 CNS was > 50 µM; with CAKI-1 renal, 22 µM; in the assay with NCI-H226 lung, 30.7 µM; with RXF 393 renal, 22.3 µM; in the assay on U251 CNS, > 50 µM; in the assay on A549 NSCLC, > 50 µM. The compound further displayed a TGI in the assay on HOP-92 NSCLC of 38.7 µM.

For the compound `COc1ccc(OC)c2c3c(ccc12)C(c1ccccc1)OC3=O` (centres undefined), the TGI in the assay on SNB-75 CNS, in the assay on HCC-2998 colon, with CAKI-1 renal, in the assay with NCI-H226 lung, with RXF 393 renal and with U251 CNS was > 100 µM in each case. For the same compound, the TGI in the assay with A549 NSCLC and in the assay with MALME-3M melanoma was > 100 µM each time.

On to `FC1OC2OC1C(OCc1ccccc1)C(OCc1ccccc1)C2OCc1ccccc1` (centres undefined), for which the TGI in the assay with SNB-75 CNS, in the assay on SF-539 CNS, in the assay with CAKI-1 renal, in the assay on NCI-H226 lung, in the assay with RXF 393 renal and in the assay with U251 CNS was > 100 µM throughout. In addition, the values for the TGI in the assay on A549 NSCLC, with HOP-92 NSCLC and with MALME-3M melanoma were > 100 µM, 64 µM and > 100 µM, respectively.

Consider `O=C(Nc1cccc(NC(=O)c2cc(=O)c3ccccc3o2)n1)c1cc(=O)c2ccccc2o1`, for which the TGI in the assay with SNB-75 CNS, in the assay on SF-539 CNS, in the assay with HCC-2998 colon, with CAKI-1 renal, in the assay with RXF 393 renal and in the assay on U251 CNS was > 100 µM throughout. The TGI is > 100 µM with A549 NSCLC, 52.7 µM in the assay on HOP-92 NSCLC and > 100 µM in the assay on MALME-3M melanoma.

`OCNCCNc1nc2ccccc2c2[nH]c3ccccc3c12`: the GI50 is 2.28 µM in the assay on SNB-75 CNS; 0.189 µM in the assay on SF-539 CNS; 2.01 µM with CAKI-1 renal; 1.47 µM in the assay on NCI-H226 lung; 1.11 µM in the assay on RXF 393 renal; 0.506 µM in the assay on U251 CNS. For the same compound, the TGI in the assay with SNB-75 CNS came to 11.6 µM; in the assay on SF-539 CNS, 0.863 µM; in the assay with CAKI-1 renal it was 7.38 µM; in the assay with NCI-H226 lung it was 5.88 µM; in the assay with RXF 393 renal, 5.85 µM; with U251 CNS, 1.9 µM.

For `COc1cc([N+](=O)[O-])c2ncccc2c1[N+](=O)[O-]`, the GI50 with SNB-75 CNS was 3.77 µM; in the assay on SF-539 CNS, 3.61 µM; in the assay with HCC-2998 colon it was 4.82 µM; with CAKI-1 renal, 1.65 µM; with NCI-H226 lung, 15.3 µM; in the assay on RXF 393 renal, 4.37 µM. Moreover, the GI50 in the assay on U251 CNS is 4.45 µM; with A549 NSCLC, 17.8 µM. For the same compound, the TGI in the assay with SNB-75 CNS amounted to 18 µM; with SF-539 CNS it was 13.6 µM; in the assay on HCC-2998 colon, 17.8 µM; with CAKI-1 renal, 4 µM; in the assay with NCI-H226 lung, 31.5 µM; in the assay with RXF 393 renal, 17.5 µM. In addition, the TGI in the assay with U251 CNS was found to be 16.6 µM; with A549 NSCLC, 34.5 µM.

With `CN1CCN(c2nc(-c3ccncc3)nc3sc4c(c23)CCCCCC4)CC1`, the GI50 with SNB-75 CNS was 1.4 µM; in the assay on SF-539 CNS, 8.32 µM; in the assay on HCC-2998 colon it was 3.91 µM; in the assay on CAKI-1 renal, 3.44 µM; in the assay on NCI-H226 lung, 10.4 µM; in the assay with RXF 393 renal, 4.08 µM. The results for the GI50 in the assay with U251 CNS, in the assay on A549 NSCLC and with HOP-92 NSCLC were 9.29 µM, 11.4 µM and 0.654 µM, respectively. Moreover, the TGI was determined as 7.75 µM in the assay with SNB-75 CNS; 21 µM in the assay with SF-539 CNS; 13.2 µM in the assay on HCC-2998 colon; 19.4 µM in the assay with CAKI-1 renal; 34.2 µM with NCI-H226 lung; 19 µM in the assay on RXF 393 renal. Besides, the TGI in the assay on U251 CNS turned out to be 25 µM; in the assay with A549 NSCLC, 25.3 µM; in the assay with HOP-92 NSCLC, 5.32 µM.

With `COC(OC)c1cc2c(cc1C(=O)[C@@]13CCC[C@@H]1NC(=O)O3)OCO2`, the TGI with SNB-75 CNS, in the assay on SF-539 CNS, in the assay with CAKI-1 renal, in the assay with NCI-H226 lung, in the assay on RXF 393 renal and in the assay on U251 CNS was > 100 µM each time. Moreover, the TGI in the assay on HOP-92 NSCLC and with MALME-3M melanoma was > 100 µM in each case.

On to `COc1ccc2nc3ccccc3c(NCCCCN(C)CCCl)c2c1`, for which the TGI in the assay on SNB-75 CNS was 0.504 µM; in the assay on SF-539 CNS, 0.284 µM; in the assay with HCC-2998 colon, 0.467 µM; in the assay with CAKI-1 renal, 0.381 µM; with NCI-H226 lung it was 0.575 µM; in the assay with RXF 393 renal it was 0.362 µM. In addition, the figures for the TGI in the assay on U251 CNS, with A549 NSCLC and with MALME-3M melanoma were 0.251 µM, 1.87 µM and 1.06 µM, respectively.

Take `CN1CCc2c1nc(-c1ccc([N+](=O)[O-])cc1)c1c2N(C)CC1`: the TGI in the assay on SNB-75 CNS, in the assay with SF-539 CNS, with HCC-2998 colon, in the assay on CAKI-1 renal, with RXF 393 renal and in the assay with U251 CNS was > 100 µM in each case. Further, the TGI with A549 NSCLC, with HOP-92 NSCLC and in the assay with MALME-3M melanoma was > 100 µM throughout.

For the compound `C[C@]12CC[C@H](OC3CCCCO3)CC1=CC[C@@H]1C2CC[C@]2(C)/C(=N/O)CCC12` (some centres undefined), the TGI in the assay with SNB-75 CNS is 41.9 µM; in the assay on SF-539 CNS it was > 100 µM; in the assay with HCC-2998 colon it was 37.8 µM; in the assay with CAKI-1 renal it was > 100 µM; in the assay on RXF 393 renal, 44.8 µM; with U251 CNS, 40.4 µM. The TGI was determined as 34.9 µM with A549 NSCLC, 46 µM with HOP-92 NSCLC and 80.4 µM with MALME-3M melanoma.

`Cc1nc(N)nc2ccccc12`: the TGI in the assay with SNB-75 CNS, in the assay on SF-539 CNS, with HCC-2998 colon, in the assay with CAKI-1 renal, in the assay with RXF 393 renal and in the assay on U251 CNS was > 100 µM throughout. In addition, the TGI in the assay with A549 NSCLC, in the assay on HOP-92 NSCLC and with MALME-3M melanoma was > 100 µM throughout. Moreover, the GI50 with HCC-2998 colon is > 100 µM.

With `CC(=O)C1C(=O)N(C(C)C)C[C@@H]2CCC(=O)C[C@H]12` (some centres undefined), the TGI with SNB-75 CNS, in the assay on SF-539 CNS, with HCC-2998 colon, in the assay with CAKI-1 renal, in the assay on RXF 393 renal and with U251 CNS was > 100 µM in each case. In addition, the TGI in the assay with A549 NSCLC, in the assay on HOP-92 NSCLC and with MALME-3M melanoma was > 100 µM in each case.

With `Cc1nc(-n2nc(-c3ccccc3)cc2-c2ccccc2)sc1C(/C=C/c1ccc([N+](=O)[O-])cc1)=N/NC(=O)c1ccncc1`, the TGI is > 100 µM in the assay on SNB-75 CNS; 41.5 µM with SF-539 CNS; 26.6 µM with HCC-2998 colon; 56.9 µM in the assay with NCI-H226 lung; 76.6 µM in the assay on RXF 393 renal; > 100 µM in the assay with U251 CNS. Further, the results for the TGI in the assay on A549 NSCLC, in the assay with HOP-92 NSCLC and in the assay on MALME-3M melanoma were > 100 µM, 54.8 µM and > 100 µM, respectively.

For `CC1OC(OC2CCC3(C=O)C4CCC5(C)C(C6=CC(=O)OC6)CCC5(O)C4CCC3(O)C2)C(O)C(O)C1O` (centres undefined), the TGI in the assay on SNB-75 CNS worked out at 0.36 µM; in the assay with SF-539 CNS, 5.65e-05 µM; with CAKI-1 renal, 4.15e-05 µM; in the assay with NCI-H226 lung it was 0.000111 µM; with RXF 393 renal, 8.12e-05 µM; with U251 CNS, 0.000156 µM. For the same compound, the TGI with HOP-92 NSCLC turned out to be 0.000102 µM; with MALME-3M melanoma, 8.23e-05 µM.
